Consider 42 compounds from patent US7179825B2, “Retinoic acid mimetic anilides” (Janssen Pharmaceutica N.V., priority 1997, dated 2007).

Assay [1] relates to metabolism of retinoic acid in human breast cancer cells. Briefly: Inhibition of retinoic acid (RA) metabolism (Example C.1). It is filed as cell-based. Particulars: MCF-7 human breast cancer cells, 3H-RA as substrate, concentration needed to reduce the amount of metabolites to 50% of the control. An excerpt:
The property to delay the metabolism of retinoic acid can be evidenced in various in vitro and in vivo experiments. A particular in vitro procedure is described in example C.1 and tests the inhibitory activity of the compounds of formula (I) on the metabolism of retinoic acid in human breast cancer cells. The compounds of the present invention were also effective in suppressing induced vaginal keratinization effects in ovariectomized rats as is described in example C.2.
Inhibition of Retinoic Acid (RA) Metabolism
MCF-7 human breast cancer cells were grown as stock cultures according to art-known protocols. One day before the experiment, RA is added to the stock cultures to stimulate RA-metabolism. At the start of the experiment, cell suspensions were incubated in a tissue culture medium containing ^3H-RA as the substrate. Different concentrations of the test compound (dissolved in 1% DMSO) were added to the incubation mixtures, and at the end of the incubation, the unmetabolized RA is separated from its polar metabolites. The fraction containing the polar ^3H-labelled metabolites was collected and counted in a scintillation counter. For each experiment, a control and a blank incubation were run in parallel. Table 22 list the IC50 value (defined as the concentration in M needed to reduce the amount of metabolites to 50% of the control).

The next assay has as its system Ovariectomized rats. Briefly: Vaginal keratinization test on ovariectomized rats (Example C.2). Type of assay: in vivo. The note with it: estradiol undecylate induced keratinization, per os once daily on days 1-3, active dose = 50% of rats show complete suppression. Summed up: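 Ovariectomized rats given s.c. estradiol undecylate (100 μg per 100 g body weight in sesame oil), then oral compound once daily on days 1-3 (vehicle PEG 200). Vaginas assessed histologically one day after last dose; lowest active dose (mg/kg) is the dose giving complete keratinization suppression in 50% of rats.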

Each structure is given as a SMILES string.

Take `CCC(CC)C(c1ccc(NC(=O)Cc2ccc(C)c(OC)c2)cc1)n1ccnc1` (racemic) [Compound 110]: in assay [1], the IC50 stood at 0.953 nM. Moreover, the “LAD (lowest active dose)” value in the assay with Ovariectomized rats is given as over 2.50 mg/kg.

For `CCC(CC)C(c1ccc(NC(=O)Cc2ccc(-c3ccccc3)cc2)cc1)n1ccnc1` (stereo not drawn) [Compound 41], in assay [1], the IC50 came to 1.98 nM. Besides, the “LAD (lowest active dose)” value with Ovariectomized rats is on record as 2.50 mg/kg.

`CCC(CC)C(c1ccc(NC(=O)c2ccccc2)cc1)n1ccnc1` (racemic) [Compound 22]: the IC50 in assay [1] was 1.04 nM. Also, in the assay with Ovariectomized rats, the “LAD (lowest active dose)” value is given as 2.50 mg/kg.

As to `Cc1cc(CC(=O)Nc2ccc(C(C(C)N(C)C)n3cncn3)cc2)cc(C)c1C` (single isomer, unassigned) [Compound 290], in assay [1], the IC50 was determined as 1.14 nM. Besides, the “LAD (lowest active dose)” value in the assay on Ovariectomized rats worked out at 2.50 mg/kg.

On to `COc1ccccc1OCC(=O)Nc1ccc(C(C(C)N(C)C)n2ccnc2)cc1` (single isomer, unassigned) [Compound 351], for which the IC50 in assay [1] is 5.69 nM. Also, the “LAD (lowest active dose)” value in the assay on Ovariectomized rats is listed as over 5.00 mg/kg.

As to `CC(C)C(c1ccc(NC(=O)Cc2cccc(O)c2)cc1)n1ccnc1` (racemic) [Compound 667], the IC50 in assay [1] stood at 1.57 nM. In addition, the “LAD (lowest active dose)” value in the assay with Ovariectomized rats turned out to be 5.00 mg/kg.

For the compound `C/C(=C\c1ccccc1)C(=O)Nc1ccc(C(C(C)C)(C(C)C)n2ccnc2)cc1` [Compound 751], the IC50 in assay [1] came out at 67 nM. The “LAD (lowest active dose)” value in the assay with Ovariectomized rats was determined as 10.00 mg/kg.

On to `CC(=Cc1ccccc1)C(=O)Nc1ccc(C(C(C)Sc2ccccc2)n2ccnc2)cc1` (single isomer, unassigned) [Compound 483], for which, in assay [1], the IC50 was 19.8 nM. In the assay with Ovariectomized rats, the “LAD (lowest active dose)” value is given as over 5.00 mg/kg.

Regarding `CCCCC(c1ccc(NC(=O)/C(C)=C/c2ccccc2)cc1)n1ccnc1` (racemic) [Compound 462], the IC50 in assay [1] is over 1000 nM. Moreover, the “LAD (lowest active dose)” value in the assay with Ovariectomized rats is given as 20.00 mg/kg.

`CC(C)C(c1ccc(NC(=S)Cc2ccc(Cl)cc2)cc1)n1ccnc1` (stereo not drawn) [Compound 764, 4-chloro-N-[4-[1-(1H-imidazol-1-yl)-2-methylpropyl]phenyl]benzenethane-thioamide]: the IC50 in assay [1] (MCF7) came out at 23.3 nM. Besides, the minimal effective dose in the assay on Ovariectomized rats (Rattus norvegicus, po, read-out: LAD (lowest active dose)) was over 5 mg/kg.

Turning to `C/C(=C\C(C)C)C(=O)Nc1ccc(C(C(C)C)n2ccnc2)cc1` (stereo not drawn) [Compound 588], the IC50 in assay [1] turned out to be 48.8 nM. Also, the “LAD (lowest active dose)” value in the assay with Ovariectomized rats was 10.00 mg/kg.

As for `CC(C)C(c1ccc(NC(=O)C2(c3ccccc3)CCCCC2)cc1)n1ccnc1` (stereo not drawn) [Compound 200], in assay [1], the IC50 was found to be 44.3 nM. In the assay with Ovariectomized rats, the “LAD (lowest active dose)” value was over 10.00 mg/kg.

Consider `CC(C)C(c1ccc(NC(=O)c2ccccn2)cc1)n1ccnc1` (racemic) [Compound 208], for which, in assay [1], the IC50 is 6.43 nM. Besides, the “LAD (lowest active dose)” value in the assay on Ovariectomized rats is given as over 10.00 mg/kg.

As for `CCC(CC)C(c1ccc(NC(=O)C2CCc3ccccc3O2)cc1)n1ccnc1` (stereo not drawn) [Compound 29], the IC50 in assay [1] was 8.12 nM. Also, the “LAD (lowest active dose)” value in the assay with Ovariectomized rats is given as 5.00 mg/kg.

In the case of `CCN(CC)C(C)C(c1ccc(NC(=O)Cc2ccc(OC)c(OC)c2)cc1)n1ccnc1` (single isomer, unassigned) [Compound 383], in assay [1], the IC50 amounted to 0.729 nM. The “LAD (lowest active dose)” value in the assay on Ovariectomized rats is listed as over 2.50 mg/kg.

Take `CCC(CC)C(c1ccc(NC(=O)Cc2ccc(OCc3ccncc3)cc2)cc1)n1ccnc1` (stereo not drawn) [Compound 127]: the IC50 in assay [1] is 0.0285 nM. Also, the “LAD (lowest active dose)” value with Ovariectomized rats is given as over 2.50 mg/kg.

Regarding `CCC(CC)C(c1ccc(NC(=O)c2ccc(OC)c(OC)c2)cc1)n1cncn1` (racemic) [Compound 6], in assay [1], the IC50 came out at 1.65 nM. In the assay on Ovariectomized rats, the “LAD (lowest active dose)” value is 2.50 mg/kg.

Regarding `CC(C)C(c1ccc(NC(=O)Cc2ccc(Cl)c(Cl)c2)cc1)n1ccnc1` (stereo not drawn) [Compound 143], the IC50 in assay [1] was found to be 4.08 nM. The “LAD (lowest active dose)” value in the assay on Ovariectomized rats is on record as 10.00 mg/kg.

For the compound `CC(C)C(c1ccc(NC(=O)Nc2cccc(C(F)(F)F)c2)cc1)n1ccnc1` (racemic) [Compound 730], in assay [1], the IC50 was found to be 15.9 nM. Also, in the assay with Ovariectomized rats, the “LAD (lowest active dose)” value was over 10.00 mg/kg.

Turning to `CC1C(C(=O)Nc2ccc(C(C(C)C)n3ccnc3)cc2)=Cc2ccccc21` (mixture of isomers) [Compound 180], the IC50 in assay [1] stood at 56.9 nM. Besides, the “LAD (lowest active dose)” value in the assay on Ovariectomized rats was over 10.00 mg/kg.

Consider `CC(C)C(c1ccc(NC(=O)c2ccc(-c3ccccc3)cc2)cc1)n1ccnc1` (racemic) [Compound 238], for which, in assay [1], the IC50 is over 100 nM. Besides, the “LAD (lowest active dose)” value in the assay on Ovariectomized rats came to 5.00 mg/kg.

Take `O=C(Nc1ccc(C(c2cccc(C(F)(F)F)c2)n2cncn2)cc1)Nc1cccc(F)c1` (racemic) [Compound 711]: the IC50 in assay [1] is over 100 nM. Besides, the “LAD (lowest active dose)” value in the assay with Ovariectomized rats is on record as 5.00 mg/kg.

With `CC(C)C(c1ccc(NC(=O)Nc2cccc3ccccc23)cc1)n1ccnc1` (racemic) [Compound 272], in assay [1], the IC50 is 4.81 nM. For the same compound, the “LAD (lowest active dose)” value in the assay with Ovariectomized rats is over 10.00 mg/kg.

As to `CC(=Cc1cc2ccccc2o1)C(=O)Nc1ccc(C(C(C)C)n2ccnc2)cc1` (stereo not drawn) [Compound 600], the IC50 in assay [1] was 36.7 nM. In addition, in the assay with Ovariectomized rats, the “LAD (lowest active dose)” value is listed as over 10.00 mg/kg.

With `CC(C)C(c1ccc(NC(=O)C(F)=Cc2ccccc2)cc1)n1cncn1` (racemic) [Compound 160], the IC50 in assay [1] came out at 86.5 nM. Further, the “LAD (lowest active dose)” value in the assay on Ovariectomized rats is 10.00 mg/kg.

Consider `CC(C)C(c1ccc(NC(=O)C(C)(c2ccccc2)c2ccccc2)cc1)n1ccnc1` (racemic) [Compound 189], for which, in assay [1], the IC50 was over 100 nM. In addition, in the assay with Ovariectomized rats, the “LAD (lowest active dose)” value is over 10.00 mg/kg.

On to `CC(C)C(c1ccc(NC(=O)Cc2ccc3ccccc3c2)cc1)n1ccnc1` (racemic) [Compound 240], for which the IC50 in assay [1] was 1.34 nM. Besides, the “LAD (lowest active dose)” value with Ovariectomized rats was 10.00 mg/kg.

Turning to `COCC(=O)Nc1ccc(C(C(C)C)n2ccnc2)cc1` (stereo not drawn) [Compound 212], the IC50 in assay [1] turned out to be 4.07 nM. Further, the “LAD (lowest active dose)” value in the assay with Ovariectomized rats stood at 20.00 mg/kg.

On to `CCC(CC)C(c1ccc(NC(=O)Cc2ccc3nc(N)sc3c2)cc1)n1cncn1` (stereo not drawn) [Compound 13], for which the IC50 in assay [1] is 0.0357 nM. For the same compound, the “LAD (lowest active dose)” value with Ovariectomized rats is over 2.50 mg/kg.

Consider `CCC(CC)C(c1ccc(NC(=O)Cc2ccc(O)cc2)cc1)n1ccnc1` (racemic) [Compound 111], for which, in assay [1], the IC50 was 1.03 nM. For the same compound, in the assay with Ovariectomized rats, the “LAD (lowest active dose)” value is recorded as over 2.50 mg/kg.

As for `CC(C)C(c1ccc(NC(=O)Cc2ccc3c(c2)C(C)(C)CCC3(C)C)cc1)n1ccnc1` (racemic) [Compound 256], the IC50 in assay [1] was found to be 3.2 nM. The “LAD (lowest active dose)” value in the assay with Ovariectomized rats is given as over 2.50 mg/kg.

Take `CC(C)C(c1ccc(NC(=O)c2ccc[nH]c2=O)cc1)n1ccnc1` (racemic) [Compound 228]: the IC50 in assay [1] stood at 73 nM. Moreover, in the assay on Ovariectomized rats, the “LAD (lowest active dose)” value is recorded as over 10.00 mg/kg.

`COCC(C)C(c1ccc(NC(=O)Cc2ccc(OC)c(OC)c2)cc1)n1ccnc1` (racemic) [Compound 404, (±)-(A)-3,4-dimethoxy-N-[4-[1-(1H-imidazol-1-yl)-3-methoxy-2-methylpropyl]phenyl]benzeneacetamide]: in assay [1], the IC50 came out at 1.35 nM. Also, in the assay with Ovariectomized rats, the “LAD (lowest active dose)” value was found to be 5.00 mg/kg.

`CCC(CC)C(c1ccc(NC(=O)COc2ccccc2O)cc1)n1ccnc1` (racemic) [Compound 49]: in assay [1], the IC50 amounted to 0.433 nM. Moreover, in the assay on Ovariectomized rats, the “LAD (lowest active dose)” value is 2.50 mg/kg.

As to `CC(C)C(c1ccc(NC(=O)C2CCCCC2)cc1)n1ccnc1` (racemic) [Compound 174], the IC50 in assay [1] was found to be 1.6 nM. In addition, the “LAD (lowest active dose)” value with Ovariectomized rats came out at 10.00 mg/kg.

`CC(C)C(c1ccc(NC(=O)Nc2cccc(N)c2)cc1)n1ccnc1` (racemic) [Compound 727]: in assay [1], the IC50 was determined as 1.64 nM. Further, in the assay on Ovariectomized rats, the “LAD (lowest active dose)” value was over 10.00 mg/kg.

With `CCC(CC)C(c1ccc(NC(=O)Nc2nc3ccccc3s2)cc1)n1cncn1` (racemic) [Compound 63], the IC50 in assay [1] is 6.7 nM. Further, in the assay on Ovariectomized rats, the “LAD (lowest active dose)” value is reported as over 5.00 mg/kg.

Regarding `CC(C)C(c1ccc(NC(=O)Cc2ccc(F)cc2)cc1)n1ccnc1` (racemic) [Compound 653], the IC50 in assay [1] stood at 1.34 nM. In the assay with Ovariectomized rats, the “LAD (lowest active dose)” value worked out at 5.00 mg/kg.

For `O=C(Nc1ccc(C(c2cccc(C(F)(F)F)c2)n2ccnc2)cc1)Nc1cccc(F)c1` (racemic) [Compound 729], the IC50 in assay [1] was over 100 nM. Besides, the “LAD (lowest active dose)” value with Ovariectomized rats worked out at 2.50 mg/kg.

As for `CCC(CC)C(c1ccc(NC(=O)Cc2ccc(OC)cc2)cc1)n1ccnc1` (racemic) [Compound 105], the IC50 in assay [1] was determined as 0.0516 nM. Further, in the assay with Ovariectomized rats, the “LAD (lowest active dose)” value amounted to 2.50 mg/kg.

In the case of `CCC(CC)C(c1ccc(NC(=O)Cc2ccc(OC)c(OC)c2)cc1)n1ccnc1` (racemic) [Compound 91], the IC50 in assay [1] was 0.935 nM. Also, the “LAD (lowest active dose)” value in the assay on Ovariectomized rats was determined as 2.50 mg/kg.

On to `C/C(=C\c1ccc2nn(C)nc2c1)C(=O)Nc1ccc(C(C(C)C)n2ccnc2)cc1` (racemic) [Compound 599], for which the IC50 in assay [1] came to 6.36 nM. Also, the “LAD (lowest active dose)” value in the assay on Ovariectomized rats is on record as over 20.00 mg/kg.
